Holding throughout (format): cell-based
The target of one assay is T1, human EGFR-LTC (Homo sapiens, UniProt P00533, C797S/L858R/T790M).
T1 construct: expressed in transfected cells
As to the kind of experiment: EGFR protein abundance assay (Western blotting), EGFR-LTC. The note with it: Ba/F3 cells expressing human EGFR-LTC, 24 h, Western blot. Here is the method: (§1) Mouse Ba/F3 cells stably expressing human EGFR-DTC, EGFR-LTC, or EGFR-DC were transferred to Petri dishes with RPMI-1640 medium (Gibco, Product No. 11875093) containing 10% fetal bovine serum (FBS, Biological Industries, Product No. 04-001-1A) and 0.1% penicillin/streptomycin (P/S) and incubated in an aseptic incubator at 37° C., 95% relative humidity, and 5% CO2. Cells at the logarithmic growth phase were taken and seeded at a density of 50000 cells/well in 12-well plates (Corning, Product No. 3513) containing 1 mL of medium per well. After 24 h, the compounds disclosed herein with different concentrations were added to the wells at a final DMSO concentration of 0.1%. After 24 h, cells were lysed in SDS lysis buffer (1.45 g of SDS, 0.2 g of Tris base, 6 mL of glycerol, 20 mg of bromophenol blue, 310 mg DTT; brought to 40 mL with d2H2O), and the EGFR levels were detected and analyzed by Western Blotting (immunoblotting) using standard molecular biological techniques. Cell lysates were boiled at 95° C. for 8 min, mixed and centrifuged. The total cell proteins in the lysates were subjected to SDS-PAGE (GenScript, Product No. M00654), transferred to NC membranes (GE, Product No. 1060002) by blotting, incubated in a blocking buffer (TAKARA, Product No. T7131A) at room temperature for 60 min, and co-incubated overnight at 4° C. with the following primary antibodies: anti-EGFR (#4267S, 1:1000), anti-phoso-EGFR (#3777S, 1:1000), anti-GAPDH (#5174S, 1:10000), anti-Actin (#5125 S, 1:10000) (all purchased from Cell Signaling Technology). The samples were washed three times with TBST at room temperature, each for 10 min, and then incubated for 60 minutes in a blocking buffer containing a secondary antibody (#7074S, 1:10000, purchased from Cell Signaling Technology) at room temperature. The samples were washed three times with TBST at room temperature, each for 10 min. Chemiluminescent substrates were added, and an Azure c300 system was used for imaging.
A general note: Immunoblotting shows a protein as a band on a membrane.

In another assay the test system is human EGFR-DTC. The assay is described as follows: EGFR protein abundance assay (Western blotting), EGFR-DTC. As to conditions: Ba/F3 cells expressing human EGFR-DTC, 24 h, Western blot. Here is the method: as §1
In another assay the test system is BaF3 (EGFR WT). As to the kind of experiment: Cell proliferation IC50 assay (Cell Titer GLO), BaF3 WT cells. As to conditions: Mus musculus, Ba/F3 EGFR, Table 5, 10 ng/ml EGF, 72 h. An outline of the steps:
(§2)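 Each cell line, plated at 2000-4000 cells/well, received serially diluted compound for 72 h (37° C, 5% CO2) before luminescent ATP-based viability detection. IC50 values were derived from growth inhibition relative to DMSO-treated and cell-free blank wells.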
(ATP-based viability assays read luminescence as a measure of living cells.)

For assay [1], the system named is BaF3 (EGFR Del19/T790M/C797S). The assay is described as follows: Cell proliferation IC50 assay (Cell Titer GLO), BaF3 DTC cells. As to conditions: Mus musculus, Ba/F3 EGFR-Del19/T790M/C797S, Table 5, 72 h. An outline of the steps:
as §2

Assay [2] relates to BaF3 (EGFR L858R/T790M/C797S). The assay is described as follows: Cell proliferation IC50 assay (Cell Titer GLO), BaF3 LTC cells. The note with it: Mus musculus, Ba/F3 EGFR, Table 5, 72 h. An outline of the steps: as §2
Another assay concerns A431. As to the kind of experiment: Cell proliferation IC50 assay (Cell Titer GLO), A431 cells. The note with it: Homo sapiens, A-431; Table 5; A431, 72 h; read-out: A431 IC50. An outline of the steps:
as §2

The test system of another assay is BaF3 patent. The assay is described as follows: Cell proliferation IC50 assay (Cell Titer GLO), BaF3 parental cells. The note with it: Mus musculus, Table 5, 10 ng/ml mIL3, 72 h. As to the method:
(§3) IC50 of compounds in the present invention was determined by Cell Titer GLO reagent from Promega. The procedures are as follows:
(§4) Tumor cells were cultured in specified medium in an incubator at 37° C. and 5% CO2. The cells were passaged periodically. Cells at the logarithmic growth phase were collected for plating at a density of 2000-4000 cells/well. The next day, the compounds of the present invention were serially diluted and added to the cells, with DMSO being the negative control and the culture media without cells being the blank control. The plate was incubated in the incubator for 72 h. The cell viability assay was performed by adding the detection reagents to the cell culture media according to Cell Titer GLO reagent instructions and detecting luminescent signals on an EnVision microplate reader (PerkinElmer).
(§5) Inhibition of cell growth by the compounds of the present invention was plotted by Prism Graphpad software for statistically calculating the IC50 of the compound of the present invention.

In the next assay the test system is LT. The assay is described as follows: Cell proliferation IC50 assay (Cell Titer GLO), LT cells. The note with it: Mus musculus; Table 7; LT cells (BaF3 with EGFR mutant), 72 h. Here is the method:
as §3, §4, §5

For another assay, the system named is DT. The assay is described as follows: Cell proliferation IC50 assay (Cell Titer GLO), DT cells. The note with it: Mus musculus; Table 7; DT cells (BaF3 with EGFR mutant), 72 h. As to the method: as §3, §4, §5

As a reminder, the IC50 is the concentration needed to halve the response being measured.

T1 sequence (P00533 25-1210 T790M/C797S/L858R): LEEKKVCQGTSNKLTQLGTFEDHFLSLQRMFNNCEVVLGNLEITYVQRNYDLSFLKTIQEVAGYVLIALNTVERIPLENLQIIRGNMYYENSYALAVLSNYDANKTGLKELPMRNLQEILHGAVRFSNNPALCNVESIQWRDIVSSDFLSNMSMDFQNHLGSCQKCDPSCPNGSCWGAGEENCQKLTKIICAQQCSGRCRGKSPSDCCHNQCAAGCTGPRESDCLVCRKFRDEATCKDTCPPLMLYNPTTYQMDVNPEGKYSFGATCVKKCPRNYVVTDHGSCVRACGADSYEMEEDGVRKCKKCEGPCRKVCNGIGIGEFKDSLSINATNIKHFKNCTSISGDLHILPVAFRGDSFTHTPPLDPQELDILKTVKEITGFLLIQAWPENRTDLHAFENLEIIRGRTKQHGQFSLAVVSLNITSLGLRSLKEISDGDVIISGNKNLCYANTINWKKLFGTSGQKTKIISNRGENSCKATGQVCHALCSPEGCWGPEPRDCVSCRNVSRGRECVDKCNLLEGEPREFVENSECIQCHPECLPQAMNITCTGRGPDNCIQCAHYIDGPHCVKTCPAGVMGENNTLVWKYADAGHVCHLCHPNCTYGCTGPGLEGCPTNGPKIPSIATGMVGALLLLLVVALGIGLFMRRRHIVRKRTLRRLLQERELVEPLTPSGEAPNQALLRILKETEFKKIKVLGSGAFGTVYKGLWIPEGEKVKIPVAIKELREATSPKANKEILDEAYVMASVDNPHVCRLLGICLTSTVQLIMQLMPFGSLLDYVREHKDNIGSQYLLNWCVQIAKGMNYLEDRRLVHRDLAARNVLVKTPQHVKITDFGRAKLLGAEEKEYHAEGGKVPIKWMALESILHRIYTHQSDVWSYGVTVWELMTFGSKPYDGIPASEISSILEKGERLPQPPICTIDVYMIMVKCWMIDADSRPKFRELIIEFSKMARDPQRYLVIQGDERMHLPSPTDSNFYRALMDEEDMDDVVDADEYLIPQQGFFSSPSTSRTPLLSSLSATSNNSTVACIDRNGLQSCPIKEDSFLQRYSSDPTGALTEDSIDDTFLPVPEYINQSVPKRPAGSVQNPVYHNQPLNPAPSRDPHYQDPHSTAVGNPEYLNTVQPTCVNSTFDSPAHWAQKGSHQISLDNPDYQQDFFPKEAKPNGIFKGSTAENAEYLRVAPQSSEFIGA

In the case of `CCc1cc(Nc2ncc(Cl)c(Nc3ccccc3P(C)(C)=O)n2)c(OC)cc1N1CCC(N2CCN(CCC#Cc3cccc4c3CN(C3CCC(=O)NC3=O)C4=O)CC2)CC1` (single isomer, unassigned) [Example E6], on human EGFR-LTC, the DC50 was determined as 10.1 nM and the “EGFR-LTC Dmax” value came to 89%. Further, in the assay on human EGFR-DTC, the DC50 stood at 3.37 nM and the “EGFR-DTC Dmax” value was determined as 70%.
With `CCc1cc(Nc2ncc(Cl)c(Nc3ccccc3P(C)(C)=O)n2)c(OC)cc1N1CCC(N2CCN(CCC#Cc3ccc4c(c3)CN(C3CCC(=O)NC3=O)C4=O)CC2)CC1` (centres unmarked) [Example E24], the IC50 was 1550 nM in the assay with BaF3 (EGFR WT); 35.4 nM in assay [1]; 70.6 nM in assay [2]; 1460 nM with A431; 1260 nM with BaF3 patent.
Regarding `CCc1cc(Nc2ncc(Cl)c(Nc3ccccc3P(C)(C)=O)n2)c(OC)cc1N1CCC(N2CCN(CCCCOc3cccc4c3CN(C3CCC(=O)NC3=O)C4=O)CC2)CC1` (centres unmarked) [Example E30], the IC50 came to 636 nM in the assay on BaF3 (EGFR WT); 1.6 nM in [1]; 11.9 nM in assay [2]; 1020 nM with A431; 410 nM in the assay on BaF3 patent.
For the compound `CCc1cc(Nc2ncc(Cl)c(Nc3ccccc3P(C)(C)=O)n2)c(OC)cc1N1CCC(N2CC3(CCC(Oc4cccc5c4CN(C4CCC(=O)NC4=O)C5=O)CC3)C2)CC1` (centres unmarked) [Example E29], the half-inhibitory concentration (IC50) in the assay on BaF3 (EGFR WT) came out at 1000 nM; in assay [1], 14 nM; in assay [2], 20.9 nM; with A431, 1020 nM; in the assay on BaF3 patent it was 1370 nM.
Consider `CCc1cc(Nc2ncc(Cl)c(Nc3ccccc3P(C)(C)=O)n2)c(OC)cc1N1CCC(N2CCC3(CCC(Oc4cccc5c4CN(C4CCC(=O)NC4=O)C5=O)CC3)C2)CC1` (centres unmarked) [Example E21], for which the IC50 in the assay with BaF3 (EGFR WT) was found to be 636 nM; in assay [1], 1.9 nM; in assay [2], 16.8 nM; in the assay with A431, 1010 nM; in the assay on BaF3 patent it was 410 nM.
On to `COc1cc(N2CCC(N3CCN(CC#Cc4cccc5c4CN(C4CCC(=O)NC4=O)C5=O)CC3)CC2)ccc1Nc1ncc(Cl)c(Nc2ccccc2P(C)(C)=O)n1` (centres unmarked) [Example C-3, reference compound], for which the IC50 is 587 nM with BaF3 (EGFR WT); 43.7 nM in [1]; 129 nM in [2]; 1210 nM with A431; 475 nM with BaF3 patent.
As to `CCc1cc(Nc2ncc(Cl)c(Nc3ccccc3P(C)(C)=O)n2)c(OC)cc1N1CCC(N2CCN(CCC#Cc3cccc4c3CN(C3CCC(=O)NC3=O)C4=O)CC2)CC1` (single isomer, unassigned) [Example E5], on human EGFR-LTC, the DC50 is under 1 nM and the “EGFR-LTC Dmax” value came out at 93%. For the same compound, in the assay with human EGFR-DTC, the DC50 turned out to be 9.31 nM and the “EGFR-DTC Dmax” value was found to be 86%.
Consider `CP(C)(=O)c1ccccc1Nc1nc(Nc2ccc(N3CCC(N4CCN(CCC#Cc5cccc6c5CN(C5CCC(=O)NC5=O)C6=O)CC4)CC3)c(Cl)c2)ncc1Cl` (centres unmarked) [Example E17], for which the half-inhibitory concentration (IC50) is 25.1 nM with BaF3 (EGFR WT); 3.7 nM in assay [1]; 15.5 nM in assay [2]; 283 nM in the assay on A431; 23.4 nM with BaF3 patent.
The matching figures for `CCc1cc(Nc2ncc(Br)c(Nc3ccc4c(c3P(C)(C)=O)OCCO4)n2)c(OC)cc1N1CCC2(CCN(CCCC#Cc3cccc4c3CN(C3CCC(=O)NC3=O)C4=O)CC2)CC1` (centres unmarked) [Example E28]: 955 nM, 11.2 nM, 57.9 nM, 1390 nM and 695 nM.
The matching figures for `COc1cc(N2CCC(N3CCN(CCC#Cc4cccc5c4CN(C4CCC(=O)NC4=O)C5=O)CC3)CC2)c(Cl)cc1Nc1ncc(Cl)c(Nc2ccccc2P(C)(C)=O)n1` (centres unmarked) [Example E10]: 101 nM, 15.5 nM, 28.4 nM, 1210 nM and 54.9 nM.
For the compound `CCc1cc(Nc2ncc(Cl)c(Nc3ccccc3P(C)(C)=O)n2)c(OC)cc1N1CCC(N2CCN(CCCc3cccc4c3CN(C3CCC(=O)NC3=O)C4=O)CC2)CC1` (centres unmarked) [Example E26], the IC50 with BaF3 (EGFR WT) amounted to 517 nM; in [1], 8 nM; in [2], 53.5 nM; in the assay with A431 it was 1090 nM; in the assay on BaF3 patent, 546 nM.
With `CCc1cc(Nc2ncc(Cl)c(Nc3ccccc3P(C)(C)=O)n2)c(OC)cc1N1CCC(N2CCN(CCCCCc3cc4c(cc3F)C(=O)N(C3CCC(=O)NC3=O)C4)CC2)CC1` (centres unmarked) [Example E19], the IC50 in the assay on BaF3 (EGFR WT) is over 4000 nM; in assay [1], 8.9 nM; in [2] it was 61.1 nM; in the assay on A431 it was 1070 nM; with BaF3 patent it was over 4000 nM.
`COc1cc(N2CCC(N3CCN(CCC#Cc4cccc5c4CN(C4CCC(=O)NC4=O)C5=O)CC3)CC2)ccc1Nc1ncc(Cl)c(Nc2ccccc2P(C)(C)=O)n1` (centres unmarked) [Example C-2, reference compound]: the IC50 in the assay on LT was 20.9 nM; with DT it was 13.3 nM; with BaF3 patent, 73.8 nM.
Consider `COc1cc(N2CCC(N3CCN(CCCCCc4ccc5c(c4)CN(C4CCC(=O)NC4=O)C5=O)CC3)CC2)ccc1Nc1ncc(Cl)c(Nc2ccccc2P(C)(C)=O)n1` (centres unmarked) [Example C-5, reference compound], for which the IC50 stood at 1630 nM in the assay on BaF3 (EGFR WT); 22.5 nM in assay [1]; 103 nM in assay [2]; 1230 nM in the assay with A431; 570 nM in the assay on BaF3 patent.
Regarding `CCc1cc(Nc2ncc(Cl)c(Nc3ccccc3P(C)(C)=O)n2)ccc1N1CCC(N2CCN(CCC#Cc3cccc4c3CN(C3CCC(=O)NC3=O)C4=O)CC2)CC1` (centres unmarked) [Example E9], the IC50 in the assay on BaF3 (EGFR WT) stood at 28.4 nM; in [1], 5.6 nM; in assay [2], 11.2 nM; with A431, 392 nM; in the assay on BaF3 patent, 20.7 nM.
As to `COc1cc(N2CCC3(CCN(CCCC#Cc4cccc5c4CN(C4CCC(=O)NC4=O)C5=O)CC3)CC2)ccc1Nc1ncc(Cl)c(Nc2ccccc2P(C)(C)=O)n1` (centres unmarked) [Example C-1, reference compound], the half-maximal inhibitory concentration (IC50) is 380 nM with BaF3 (EGFR WT); 28 nM in assay [1]; 199 nM in assay [2]; 2820 nM with A431; 376 nM in the assay with BaF3 patent.
The matching figures for `CCc1cc(Nc2ncc(Cl)c(Nc3ccccc3P(C)(C)=O)n2)c(OC)cc1N1CCC2(CCN(CCCCC#Cc3cccc4c3CN(C3CCC(=O)NC3=O)C4=O)CC2)CC1` (centres unmarked) [Example E23]: over 4000 nM, 9.4 nM, 106 nM, over 4000 nM and over 4000 nM.
The matching figures for `CCc1cc(Nc2ncc(Cl)c(Nc3ccccc3P(C)(C)=O)n2)c(OC)cc1N1CCC(N2CCN(CC#Cc3cccc4c3CN(C3CCC(=O)NC3=O)C4=O)CC2)CC1` (centres unmarked) [Example E25]: 1370 nM, 13.7 nM, 57.2 nM, 1260 nM and 1210 nM.

The values above are taken from patent publication US20240408216A1, “PROTEIN INHIBITOR OR DEGRADING AGENT, PHARMACEUTICAL COMPOSITION CONTAINING SAME AND PHARMACEUTICAL USE” (JING MEDICINE TECHNOLOGY (SHANGHAI) LTD., priority 2021, published 2024).
